# Assay results: PubChem BioAssay (NCI)
#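 The compound was tested at five concentrations on cells cultured in 96-well plates, with a 48-hour exposure period. Definition used: TGI = concentration required for complete inhibition of growth.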
# Tests used:
# Assay in all cases: NCI anticancer screen, dose series, 48 h
# [1] = test system: 786-0 renal
# [2] = test system: A498 renal
# [3] = test system: A549 NSCLC
# [4] = test system: ACHN renal
# [5] = test system: BT-549 breast
# [6] = test system: CAKI-1 renal
# [7] = test system: CCRF-CEM leukemia
# [8] = test system: COLO 205 colon
# [9] = test system: DU-145 prostate
# [10] = test system: EKVX NSCLC
# [11] = test system: HCC-2998 colon
# [12] = test system: HCT-116 colon
# [13] = test system: HCT-15 colon
# [14] = test system: HL-60(TB) leukemia
# [15] = test system: HOP-62 NSCLC
# [16] = test system: HOP-92 NSCLC
# [17] = test system: HS 578T breast
# [18] = test system: HT29 colon
# [19] = test system: IGROV1 ovarian
# [20] = test system: K-562 leukemia
# [21] = test system: KM12 colon
# [22] = test system: LOX IMVI melanoma
# [23] = test system: M14 melanoma
# [24] = test system: MALME-3M melanoma
# [25] = test system: MCF7 breast
# [26] = test system: MDA-MB-231 breast
# [27] = test system: MDA-MB-435
# [28] = test system: MDA-N
# [29] = test system: MOLT-4 leukemia
# [30] = test system: NCI-H226 lung
# [31] = test system: NCI-H23 lung
# [32] = test system: NCI-H460 lung
# [33] = test system: NCI-H522 lung
# [34] = test system: NCI/ADR-RES ovarian
# [35] = test system: OVCAR-3 ovarian
# [36] = test system: OVCAR-4 ovarian
# [37] = test system: OVCAR-5 ovarian
# [38] = test system: OVCAR-8 ovarian
# [39] = test system: PC-3 prostate
# [40] = test system: RPMI-8226 leukemia
# [41] = test system: RXF 393 renal
# [42] = test system: SF-268 CNS
# [43] = test system: SF-295 CNS
# [44] = test system: SF-539 CNS
# [45] = test system: SK-MEL-2 melanoma
# [46] = test system: SK-MEL-28 melanoma
# [47] = test system: SK-MEL-5 melanoma
# [48] = test system: SK-OV-3 ovarian
# [49] = test system: SN12C renal
# [50] = test system: SNB-19 CNS
# [51] = test system: SNB-75 CNS
# [52] = test system: SR leukemia
# [53] = test system: SW-620 colon
# [54] = test system: T-47D breast
# [55] = test system: TK-10 renal
# [56] = test system: U251 CNS
# [57] = test system: UACC-257 melanoma
# [58] = test system: UACC-62 melanoma
# [59] = test system: UO-31 renal
structure (smiles),measurement,setting,value
CC(C)(C)OCC1NC(=O)[C@@H]2Cc3c([nH]c4ccccc34)C(c3ccccc3)N2C1=O (some centres undefined),TGI,[1],> 50 µM
same,TGI,[2],> 50 µM
same,TGI,[3],> 50 µM
same,TGI,[4],> 50 µM
same,TGI,[5],> 50 µM
same,TGI,[6],> 50 µM
same,TGI,[7],> 50 µM
same,TGI,[8],> 50 µM
same,TGI,[9],> 50 µM
same,TGI,[10],> 50 µM
same,TGI,[11],> 50 µM
same,TGI,[12],> 50 µM
same,TGI,[13],> 50 µM
same,TGI,[14],> 50 µM
same,TGI,[15],> 50 µM
same,TGI,[16],> 50 µM
same,TGI,[17],> 50 µM
same,TGI,[18],> 50 µM
same,TGI,[19],> 50 µM
same,TGI,[20],> 50 µM
same,TGI,[21],> 50 µM
same,TGI,[22],> 50 µM
same,TGI,[23],> 50 µM
same,TGI,[24],> 50 µM
same,TGI,[25],> 50 µM
same,TGI,[26],> 50 µM
same,TGI,[27],> 50 µM
same,TGI,[28],> 50 µM
same,TGI,[29],> 32.7 µM
same,TGI,[30],> 50 µM
same,TGI,[31],> 50 µM
same,TGI,[32],> 50 µM
same,TGI,[33],> 50 µM
same,TGI,[34],> 50 µM
same,TGI,[35],> 50 µM
same,TGI,[36],> 50 µM
same,TGI,[37],> 50 µM
same,TGI,[38],> 50 µM
same,TGI,[39],> 50 µM
same,TGI,[40],> 33.7 µM
same,TGI,[41],> 50 µM
same,TGI,[42],> 50 µM
same,TGI,[43],> 50 µM
same,TGI,[44],> 50 µM
same,TGI,[45],> 50 µM
same,TGI,[46],> 50 µM
same,TGI,[47],> 50 µM
same,TGI,[48],> 50 µM
same,TGI,[49],> 50 µM
same,TGI,[50],> 50 µM
same,TGI,[51],> 50 µM
same,TGI,[52],> 33 µM
same,TGI,[53],> 50 µM
same,TGI,[54],> 50 µM
same,TGI,[55],> 50 µM
same,TGI,[56],> 50 µM
same,TGI,[57],> 50 µM
same,TGI,[58],> 50 µM
same,TGI,[59],> 50 µM
c1ccc(C2=NCCN2)c(C2=NCCN2)c1,TGI,[1],> 100 µM
same,TGI,[2],> 100 µM
same,TGI,[3],> 100 µM
same,TGI,[4],> 100 µM
same,TGI,[5],> 100 µM
same,TGI,[6],> 100 µM
same,TGI,[7],> 100 µM
same,TGI,[8],> 100 µM
same,TGI,[9],> 100 µM
same,TGI,[10],> 100 µM
same,TGI,[11],> 100 µM
same,TGI,[12],> 100 µM
same,TGI,[13],> 100 µM
same,TGI,[14],> 100 µM
same,TGI,[15],> 100 µM
same,TGI,[16],> 100 µM
same,TGI,[17],> 100 µM
same,TGI,[18],> 100 µM
same,TGI,[19],> 100 µM
same,TGI,[20],> 100 µM
same,TGI,[21],> 100 µM
same,TGI,[22],> 100 µM
same,TGI,[23],> 100 µM
same,TGI,[24],> 100 µM
same,TGI,[25],> 100 µM
same,TGI,[26],> 100 µM
same,TGI,[27],> 100 µM
same,TGI,[28],> 100 µM
same,TGI,[29],> 100 µM
same,TGI,[30],> 100 µM
same,TGI,[31],> 100 µM
same,TGI,[32],> 100 µM
same,TGI,[33],> 100 µM
same,TGI,[34],> 100 µM
same,TGI,[35],> 100 µM
same,TGI,[36],> 100 µM
same,TGI,[37],> 100 µM
same,TGI,[38],> 100 µM
same,TGI,[39],> 100 µM
same,TGI,[40],> 100 µM
same,TGI,[41],> 100 µM
same,TGI,[42],> 100 µM
same,TGI,[43],> 100 µM
same,TGI,[44],> 100 µM
same,TGI,[45],> 100 µM
same,TGI,[46],> 100 µM
same,TGI,[47],> 100 µM
same,TGI,[48],> 100 µM
same,TGI,[49],> 100 µM
same,TGI,[50],> 100 µM
same,TGI,[51],> 100 µM
same,TGI,[52],> 100 µM
same,TGI,[53],> 100 µM
same,TGI,[54],> 100 µM
same,TGI,[55],> 100 µM
same,TGI,[56],> 100 µM
same,TGI,[57],> 100 µM
same,TGI,[58],> 100 µM
same,TGI,[59],> 100 µM
O=C1O/C(=C\c2ccccc2)N(c2ccccc2)C1=O,TGI,[1],> 100 µM
same,TGI,[2],> 100 µM
same,TGI,[3],> 100 µM
same,TGI,[4],> 100 µM
same,TGI,[5],> 100 µM
same,TGI,[6],> 100 µM
same,TGI,[7],> 100 µM
same,TGI,[8],> 100 µM
same,TGI,[9],> 100 µM
same,TGI,[10],> 100 µM
same,TGI,[11],> 100 µM
same,TGI,[12],> 100 µM
same,TGI,[13],> 100 µM
same,TGI,[14],> 100 µM
same,TGI,[15],> 100 µM
same,TGI,[16],> 100 µM
same,TGI,[17],> 100 µM
same,TGI,[18],> 100 µM
same,TGI,[19],> 100 µM
same,TGI,[20],> 100 µM
same,TGI,[21],> 100 µM
same,TGI,[22],> 100 µM
same,TGI,[23],> 100 µM
same,TGI,[25],> 100 µM
same,TGI,[26],> 100 µM
same,TGI,[27],> 100 µM
same,TGI,[28],> 100 µM
same,TGI,[29],> 100 µM
same,TGI,[30],> 100 µM
same,TGI,[31],> 100 µM
same,TGI,[32],> 100 µM
same,TGI,[33],> 100 µM
same,TGI,[34],> 100 µM
same,TGI,[35],> 100 µM
same,TGI,[36],> 100 µM
same,TGI,[37],> 100 µM
same,TGI,[38],> 100 µM
same,TGI,[39],> 100 µM
same,TGI,[40],> 100 µM
same,TGI,[41],> 100 µM
same,TGI,[42],> 100 µM
same,TGI,[45],> 100 µM
same,TGI,[46],> 100 µM
same,TGI,[47],> 100 µM
same,TGI,[48],> 100 µM
same,TGI,[49],> 100 µM
same,TGI,[50],> 100 µM
same,TGI,[51],> 100 µM
same,TGI,[52],> 100 µM
same,TGI,[53],> 100 µM
same,TGI,[54],> 100 µM
same,TGI,[55],> 100 µM
same,TGI,[56],> 100 µM
same,TGI,[57],> 100 µM
same,TGI,[58],> 100 µM
same,TGI,[59],> 100 µM
